Patent US8818734B1, “Peptide ligands for sperm DNA fragmentation assay” (priority 2011, dated 2014)

Legend:
Format in all cases: cell-based
[1] = system: human spermatozoa; assay: Induction of single-strand DNA damage with H2O2: DW1 staining of ethanol-fixed slides, SCDt, alkaline comet assay; settings: 0.03 and 0.3% H2O2, 30 min, p<0.05
Method: Five human sperm samples were washed in PBS (220 g, 10 min), diluted to a concentration of 10×10^6 spermatozoa/ml in PBS (Fischer Scientific International, Pittsburgh, Pa., USA) and divided into three aliquots of 200 μl each, allowing a control group to be compared with the treated cells. To induce single-strand DNA damage (Yamamoto, 1969), spermatozoa were incubated with 0.03 and 0.3% H2O2 (Sigma, St Louis, Mo., USA) for 30 min at room temperature.
(§1) Control, H2O2 (0.03% and 0.3%) and Bleomycin (2 and 4 mg/ml)-treated sperm samples were used for this purpose. Ten fields per sample were captured as described above in the Fluorescence microscopy evaluation and image capture section using a fixed exposure time. A total of 300 sperm cells per slide were analysed.
One way-ANOVA and Dunnett's Test for multiple comparisons with a single control were used to detect significant differences in the frequencies of SDF calculated by SCDt and alkaline comet assay between the control and each one of the treatments, 0.03% and 0.3% H2O2.

[2] = system: human spermatozoa; assay: Induction of double-strand DNA damage with Bleomycin: DW1 staining of ethanol-fixed slides, SCDt, neutral comet assay; settings: 2 and 4 mg/ml Bleomycin, 3 h, 37° C., p<0.05
Method: Five human sperm samples were washed in PBS (220 g, 10 min), diluted to a concentration of 10×10^6 spermatozoa/ml in PBS (Fischer Scientific International, Pittsburgh, Pa., USA) and divided into three aliquots of 200 μl each, allowing a control group to be compared with the treated cells. To induce double-strand DNA damage, spermatozoa were incubated with 2 and 4 mg/ml of Bleomycin (Sigma, St Louis, Mo., USA) for 3 h at 37° C.
as §1
A Mann-Whitney U test was used to detect significant differences in the frequencies of SDF calculated by SCDt and neutral comet assay between the control and each one of the treatments, 2 mg/ml and 4 mg/ml of bleomycin.

[3] = system: spermatozoa; assay: Access of TAT-modified DW1 to the cell interior; settings: DW1 modified to include TAT peptide YGRKKRRQRRRG
Text: However, it is possible that different TAT configurations or the use of an alternative protein transduction domain might allow penetration into the cell interior. […] It is still possible that the peptide could be used to choose spermatozoa for fertilization using ICSI following removal of membranes using detergent. Previous studies have shown that sperm treated in this way remain fertilizations competent (Kasai et al., 1999). […] Electroporation is known not to inhibit sperm viability and ICSI procedures.

In the case of `OO` [H2O2, Hydrogen Peroxide], the “frequency of sperm cells with fragmented DNA by SCDt (SCDt-SDF) and alkaline comet assay (ssSDF)” value [1] is reported as “significant increase”.

For Bleomycin, the “frequency of sperm cells with fragmented DNA by SCDt (SCDt-SDF) and neutral comet assay (dsSDF)” value [2] was “significantly increased”.

“DW1 (SEQ ID NO:1) to include a TAT peptide: DW1 modified to include a TAT peptide (YGRKKRRQRRRG), a transduction sequence (GSRAHSSHLKSKKGQSTSRHKKYGRKKRRQRRRG; listed as Homo sapiens)” was tested, and the “access to the cell interior” value [3] was “failed to improve access to the cell interior”.
